Two compounds from article PMC2644305 (Nature chemical biology, 2009) can be followed below.

The target in the assay is FACL19 (Mycobacterium tuberculosis, UniProt P9WQ51).

As to `CC(C)(COP(=O)(O)OP(=O)(O)OC[C@H]1O[C@@H](n2cnc3c(N)ncnc32)[C@H](O)[C@@H]1OP(=O)(O)O)[C@@H](O)C(=O)NCCC(=O)NCCS` [compound 1, CoASH], the KM entry is “Kinetic analysis of CoA formation by wild type FACL19 and FACL19i proteins”.

Take `Nc1ncnc2c1ncn2[C@@H]1O[C@H](COP(=O)(O)OP(=O)(O)OP(=O)(O)O)[C@@H](O)[C@H]1O` [compound 3, ATP]: the KM entry is recorded as “no significant change in KM was observed for ATP”.
